This passage reports EC50 and Emax results from patent publication US20230265151A1, “GIP/GLP1 CO-AGONIST COMPOUNDS” (priority 2020, published 2023).

In general, EC50 refers to the concentration at which the effect is half-maximal. A word on the Emax: it is the greatest response seen or fitted, relative to the assay's reference.

Assay [1] has as its target T1, hGCGR (Homo sapiens, UniProt P47871).
T1 construct: expressed in transfected cells
The assay is described as follows: Functional cAMP formation (HTRF) in HEK-293 clonal cells expressing hGCGR, 0.1% bovine casein, without or with 1.0% human serum albumin. Conditions: geometric mean. The class given is cell-based. How it is done: (§1) After a 30-min incubation at 37° C., the resulting increase in intracellular cAMP is quantitatively determined using a CisBio cAMP Dynamic 2 HTRF Assay Kit (62AM4PEJ). Briefly, cAMP levels within the cell are detected by adding the cAMP-d2 conjugate in cell lysis buffer (10 µL) followed by the antibody anti-cAMP-Eu^3+-Cryptate, also in cell lysis buffer (10 µL). The resulting competitive assay is incubated for at least 60 min at room temperature, and then is detected using a PerkinElmer Envision® instrument with excitation at 320 nm and emission at 665 nm and 620 nm. Envision units (emission at 665 nm/620 nm* 10,000) are inversely proportional to the amount of cAMP present and are converted to nM cAMP per well us-ing a cAMP standard curve. […] A relative EC50 value and percent top (Emax) are derived by non-linear regression analysis using the percent maximal response vs. the concentration of peptide added, fitted to a four-parameter logistic equation.
On the technique in general: cAMP levels reflect the balance of adenylyl cyclase and phosphodiesterase activity.

The target of assay [2] is T2, hGIPR (Homo sapiens, UniProt P48546).
T2 construct: expressed in transfected cells
T2 sequence (P48546 22-466): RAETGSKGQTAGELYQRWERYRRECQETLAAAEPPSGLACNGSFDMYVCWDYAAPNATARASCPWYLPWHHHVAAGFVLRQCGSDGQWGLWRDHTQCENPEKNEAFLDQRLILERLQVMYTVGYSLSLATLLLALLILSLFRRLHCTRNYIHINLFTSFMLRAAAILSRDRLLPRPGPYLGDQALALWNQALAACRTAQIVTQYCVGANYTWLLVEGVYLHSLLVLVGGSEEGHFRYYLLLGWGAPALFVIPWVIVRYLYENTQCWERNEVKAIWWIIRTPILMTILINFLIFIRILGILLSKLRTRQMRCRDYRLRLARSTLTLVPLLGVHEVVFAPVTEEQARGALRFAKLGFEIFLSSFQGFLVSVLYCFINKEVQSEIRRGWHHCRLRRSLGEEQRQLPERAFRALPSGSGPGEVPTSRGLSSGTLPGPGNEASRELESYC
As to the kind of experiment: Functional cAMP formation (HTRF) in HEK-293 clonal cells expressing hGIPR, 0.1% bovine casein, without or with 1.0% human serum albumin. Type of assay: cell-based. Conditions: for EC50: hGIPR EC50, nM (SEM, n), geometric mean. The method, then: as §1

The mark [3] stands for this setting: cAMP, incubated at 37° C., 0.1% bovine casein (no human serum albumin), read-out: hGCGR EC50, nM (SEM, n).
[4] abbreviates: HEK293, percent of maximal response to GIP(1-42)NH2, 37° C., 0.1% bovine casein, arithmetic mean, read-out: hGIPR Emax, % ± SEM.

Read-outs that look alike come from different tables or passages of the source.

T1 sequence (P47871 26-477): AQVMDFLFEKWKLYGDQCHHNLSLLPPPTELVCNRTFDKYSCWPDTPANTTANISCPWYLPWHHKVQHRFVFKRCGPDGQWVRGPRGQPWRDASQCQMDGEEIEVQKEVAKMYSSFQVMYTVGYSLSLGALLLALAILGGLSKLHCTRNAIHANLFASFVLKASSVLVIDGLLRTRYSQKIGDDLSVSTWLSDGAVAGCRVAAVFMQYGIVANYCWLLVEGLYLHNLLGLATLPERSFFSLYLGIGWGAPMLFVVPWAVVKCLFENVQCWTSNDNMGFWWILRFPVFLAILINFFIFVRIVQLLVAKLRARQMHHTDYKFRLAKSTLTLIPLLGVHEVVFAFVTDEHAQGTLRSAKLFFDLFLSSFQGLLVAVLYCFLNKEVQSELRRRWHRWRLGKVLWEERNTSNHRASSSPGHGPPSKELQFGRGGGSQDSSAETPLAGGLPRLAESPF

In the case of `CC[C@H](C)[C@H](NC(=O)[C@H](CC(C)C)NC(=O)[C@](C)(Cc1ccc(O)cc1)NC(=O)[C@@H](CCC(=O)O)NC(=O)[C@@H](NC(=O)[C@H](Cc1ccccc1)NC(=O)[C@H](CCC(=O)O)NC(=O)C(C)(C)NC(=O)[C@H](CCC(N)=O)NC(=O)[C@H](C)NC(=O)[C@H](CCCCNC(=O)COCCOCCNC(=O)COCCOCCNC(=O)CC[C@H](NC(=O)CCCCCCCCCCCCC(=O)O)C(=O)O)NC(=O)[C@H](CCCN)NC(=O)[C@H](CC(=O)O)NC(=O)[C@H](CC(C)C)NC(=O)[C@](C)(CC(C)C)NC(=O)[C@@H](NC(=O)[C@H](CO)NC(=O)[C@H](Cc1ccncc1)NC(=O)[C@H](CC(=O)O)NC(=O)[C@H](CO)NC(=O)[C@@H](NC(=O)[C@](C)(Cc1ccccc1F)NC(=O)[C@@H](NC(=O)CNC(=O)[C@H](CCC(=O)O)NC(=O)C(C)(C)NC(=O)[C@@H](N)Cc1ccc(O)cc1)[C@@H](C)O)[C@@H](C)O)[C@@H](C)CC)[C@@H](C)CC)C(=O)N[C@@H](CCC(=O)O)C(=O)NCC(=O)N[C@@H](CCCN)C(=O)N[C@@H](CCCCNC(=O)COCCOCCNC(=O)COCCOCCNC(=O)CC[C@H](NC(=O)CCCCCCCCCCCCC(=O)O)C(=O)O)C(=O)N[C@@H](CO)C(=O)N[C@@H](CO)C(=O)NCC(=O)N[C@@H](C)C(=O)N1CCC[C@H]1C(=O)N1CCC[C@H]1C(=O)N1CCC[C@H]1C(=O)N[C@@H](CO)C(N)=O` [Example 152], the EC50 in assay [1] (setting [3]) is above 9950 nM. Moreover, the Emax in assay [2] (setting [4]) is 97.9 ± 3.25%.

With `CCCCCCCCCCCC(=O)N[C@@H](CCC(=O)NCCOCCOCC(=O)NCCOCCOCC(=O)NCCCC[C@H](NC(=O)[C@H](CCCN)NC(=O)[C@H](CC(=O)O)NC(=O)[C@H](CC(C)C)NC(=O)[C@](C)(CC(C)C)NC(=O)[C@@H](NC(=O)[C@H](CO)NC(=O)[C@H](CCCCNC(=O)COCCOCCNC(=O)COCCOCCNC(=O)CC[C@H](NC(=O)CCCCCCCCCCC)C(=O)O)NC(=O)[C@H](CC(=O)O)NC(=O)[C@H](CO)NC(=O)[C@@H](NC(=O)[C@](C)(Cc1ccccc1F)NC(=O)[C@@H](NC(=O)CNC(=O)[C@H](CCC(=O)O)NC(=O)C(C)(C)NC(=O)[C@@H](N)Cc1ccc(O)cc1)[C@@H](C)O)[C@@H](C)O)[C@@H](C)CC)C(=O)N[C@@H](C)C(=O)N[C@@H](CCC(N)=O)C(=O)NC(C)(C)C(=O)N[C@@H](CCC(=O)O)C(=O)N[C@@H](Cc1ccccc1)C(=O)N[C@H](C(=O)N[C@H](CCC(=O)O)C(=O)N[C@@](C)(Cc1ccc(O)cc1)C(=O)N[C@@H](CC(C)C)C(=O)N[C@H](C(=O)N[C@@H](CCC(=O)O)C(=O)NCC(=O)NCC(=O)N1CCC[C@H]1C(=O)N[C@@H](CO)C(=O)N[C@@H](CO)C(=O)NCC(=O)N[C@@H](C)C(=O)N1CCC[C@H]1C(=O)N1CCC[C@H]1C(=O)N1CCC[C@H]1C(=O)N[C@@H](CO)C(N)=O)[C@@H](C)CC)[C@@H](C)CC)C(=O)O` [Example 136], the EC50 in assay [1] (setting [3]) is above 9950 nM. For the same compound, the Emax in assay [2] (setting [4]) was 97.4 ± 4.23%.

`CC[C@H](C)[C@H](NC(=O)[C@H](CC(C)C)NC(=O)[C@](C)(Cc1ccc(O)cc1)NC(=O)[C@@H](CCC(=O)O)NC(=O)[C@@H](NC(=O)[C@H](Cc1ccccc1)NC(=O)[C@H](CCC(=O)O)NC(=O)C(C)(C)NC(=O)[C@H](CCC(N)=O)NC(=O)[C@H](C)NC(=O)[C@H](CCCCNC(=O)COCCOCCNC(=O)COCCOCCNC(=O)CC[C@H](NC(=O)CCCCCCCCCOc1ccc(C(=O)O)cc1)C(=O)O)NC(=O)[C@H](CCCN)NC(=O)[C@H](CC(=O)O)NC(=O)[C@H](CC(C)C)NC(=O)[C@](C)(CC(C)C)NC(=O)[C@@H](NC(=O)[C@H](CO)NC(=O)[C@H](Cc1ccc2ccccc2c1)NC(=O)[C@H](CC(=O)O)NC(=O)[C@H](CO)NC(=O)[C@@H](NC(=O)[C@](C)(Cc1ccccc1F)NC(=O)[C@@H](NC(=O)CNC(=O)[C@H](CCC(=O)O)NC(=O)C(C)(C)NC(=O)[C@@H](N)Cc1ccc(O)cc1)[C@@H](C)O)[C@@H](C)O)[C@@H](C)CC)[C@@H](C)CC)C(=O)N[C@@H](CCCCNC(=O)COCCOCCNC(=O)COCCOCCNC(=O)CC[C@H](NC(=O)CCCCCCCCCOc1ccc(C(=O)O)cc1)C(=O)O)C(=O)NCC(=O)NCC(=O)N1CCC[C@H]1C(=O)N[C@@H](CO)C(=O)N[C@@H](CO)C(=O)NCC(=O)N[C@@H](C)C(=O)N1CCC[C@H]1C(=O)N1CCC[C@H]1C(=O)N1CCC[C@H]1C(=O)N[C@@H](CO)C(N)=O` [Example 282]: the EC50 in assay [1] (hGCGR EC50, nM (SEM, n), 0.1% bovine casein and 1.0% human serum albumin, 37° C.) is above 9950 nM; in assay [1] (hGCGR EC50, nM (SEM, n), cAMP, 37° C., 0.1% bovine casein (no human serum albumin)), above 9950 nM; in assay [2] (0.1% bovine casein and 1.0% human serum albumin, 37° C.) it was 1.44 nM; in assay [2] (cAMP, 37° C., 0.1% bovine casein (no human serum albumin)), 0.0193 nM. In addition, the Emax in assay [2] (HEK293, read-out: hGIPR Emax, % ± SEM, 0.1% bovine casein and 1.0% human serum albumin, 37° C., percent of maximal response to GIP(1-42)NH2) was 84.4%.

For `CC[C@H](C)[C@H](NC(=O)[C@H](CC(C)C)NC(=O)[C@](C)(Cc1ccc(O)cc1)NC(=O)[C@H](CCCCNC(=O)COCCOCCNC(=O)COCCOCCNC(=O)COCCOCCNC(=O)CC[C@H](NC(=O)CCCCCCCCCCCCC(=O)O)C(=O)O)NC(=O)[C@@H](NC(=O)[C@H](Cc1ccccc1)NC(=O)[C@H](CCC(=O)O)NC(=O)C(C)(C)NC(=O)[C@H](CCC(N)=O)NC(=O)[C@H](C)NC(=O)[C@H](CCCCNC(=O)COCCOCCNC(=O)COCCOCCNC(=O)COCCOCCNC(=O)CC[C@H](NC(=O)CCCCCCCCCCCCC(=O)O)C(=O)O)NC(=O)[C@H](CCCN)NC(=O)[C@H](CC(=O)O)NC(=O)[C@H](CC(C)C)NC(=O)[C@](C)(CC(C)C)NC(=O)[C@@H](NC(=O)[C@H](CO)NC(=O)[C@H](Cc1ccncc1)NC(=O)[C@H](CC(=O)O)NC(=O)[C@H](CO)NC(=O)[C@@H](NC(=O)[C@](C)(Cc1ccccc1F)NC(=O)[C@@H](NC(=O)CNC(=O)[C@H](CCC(=O)O)NC(=O)C(C)(C)NC(=O)[C@@H](N)Cc1ccc(O)cc1)[C@@H](C)O)[C@@H](C)O)[C@@H](C)CC)[C@@H](C)CC)C(=O)N[C@@H](CCC(=O)O)C(=O)NCC(=O)NCC(=O)N1CCC[C@H]1C(=O)N[C@@H](CO)C(=O)N[C@@H](CO)C(=O)NCC(=O)N[C@@H](C)C(=O)N1CCC[C@H]1C(=O)N1CCC[C@H]1C(=O)N1CCC[C@H]1C(=O)N[C@@H](CO)C(N)=O` [Example 80], the EC50 was above 9950 nM in assay [1] (hGCGR EC50, nM (SEM, n), cAMP, incubated at 37° C., 0.1% bovine casein (no human serum albumin)) and 0.0245 nM in assay [2] (cAMP, incubated at 37° C., 0.1% bovine casein (no human serum albumin)). Besides, the Emax in assay [2] (HEK293, read-out: hGIPR Emax, % ± SEM, percent of maximal response to GIP(1-42)NH2, 37° C., 0.1% bovine casein, arithmetic mean) was found to be 92.4 ± 1.14%.

Regarding `CC[C@H](C)[C@H](NC(=O)[C@H](CC(C)C)NC(=O)[C@](C)(Cc1ccc(O)cc1)NC(=O)[C@@H](CCC(=O)O)NC(=O)[C@@H](NC(=O)[C@](C)(Cc1ccccc1)NC(=O)[C@H](CCC(=O)O)NC(=O)C(C)(C)NC(=O)[C@H](CCC(N)=O)NC(=O)[C@H](C)NC(=O)[C@H](CCCCNC(=O)COCCOCCNC(=O)COCCOCCNC(=O)CC[C@H](NC(=O)CCCCCCCCCCCCC(=O)O)C(=O)O)NC(=O)[C@H](CCCN)NC(=O)[C@H](CC(=O)O)NC(=O)[C@H](CC(C)C)NC(=O)[C@](C)(CC(C)C)NC(=O)[C@@H](NC(=O)[C@H](CO)NC(=O)[C@@H](NC(=O)[C@H](CC(=O)O)NC(=O)[C@H](CO)NC(=O)[C@@H](NC(=O)[C@](C)(Cc1ccccc1F)NC(=O)[C@@H](NC(=O)CNC(=O)[C@H](CCC(=O)O)NC(=O)C(C)(C)NC(=O)[C@@H](N)Cc1ccc(O)cc1)[C@@H](C)O)[C@@H](C)O)C(C)C)[C@@H](C)CC)[C@@H](C)CC)C(=O)N[C@@H](CCC(=O)O)C(=O)NCC(=O)NCC(=O)N[C@@H](CCCCNC(=O)COCCOCCNC(=O)COCCOCCNC(=O)CC[C@H](NC(=O)CCCCCCCCCCCCC(=O)O)C(=O)O)C(=O)N[C@@H](CO)C(=O)N[C@@H](CO)C(=O)NCC(=O)N[C@@H](C)C(=O)N1CCC[C@H]1C(=O)N1CCC[C@H]1C(=O)N1CCC[C@H]1C(=O)N[C@@H](CO)C(N)=O` [Example 92], the EC50 was above 9950 nM in assay [1] (0.1% bovine casein and 1.0% human serum albumin, 37° C., read-out: hGCGR EC50, nM (SEM, n)); above 9950 nM in assay [1] (setting [3]).
